≈ marks a conversion by molar mass, not a printed value. Where “and” joins values, the source holds several entries; their conditions need not be identical. Identical values can stand only once. Like-named read-outs stand apart in the source and are kept apart here.
What was measured:
[1] = tested on: Treponema hyodysenteriae 78/A strain; experiment: efficacy against swine dysentery under experimental infection conditions in pigs (drug in feed), Test Examples 5-7; format: in vivo, Landrace pigs; settings: for Body weight gain / Feed conversion / Feed intake: 21 day period; for Body weight gain / Feed conversion / Feed intake / Body weight at the time of completion of test: mean per head
Protocol: Lankacidin C was tested for efficacy against swine dysentery under experimental infection conditions. Thus, twelve 6-week-old Landrace pigs (4 per group) were used. The test drug was admixed to a concentration of 100 ppm with the domestically formulated starter feed for young pigs without antibiotics. The animals were provided with the ration ad libitum. Infection of the pigs was effected by direct intragastrical administration to the SPF pigs of an inoculum prepared by preliminary anaerobic cultivation of the Treponema hyodysenteriae 78/A strain on a 5% horse blood added agar plate, mashing together with the culture medium and admixing with 5% mucin added phosphate buffer. Colonic contents and mucosa were collected from pigs which developed typical signs of swine dysentery, and diluted two-fold with 5% mucin added phosphate buffer. The dilution was used as the final inoculum, and 100 ml of the dilution was directly injected into the stomach of test pigs at the age of 7 weeks (fasted for 24 hours before infection). The pigs were fed for 21 days following infection.
The data are each the mean value per head for the 21day period from
infection to autopsy. Different alphabetic letters on the same line
indicate that there is a significant difference between the data to which
they are attached (P <0.05).
Lankacidin C was tested at concentrations in feed of 100 ppm and lower by the same method as in Test Example 5, with carbadox, a commonly used anti-swine-dysentery agent, for comparison.
The anti-swine-dysentery effects of 10 ppm each of lankacidin A and lankacidin C 14-propionate were examined by the procedure of Test Example 6.

Treponema hyodysenteriae = experiment: in vitro antibacterial activity (MIC, agar dilution method), Test Examples 1-3; format: cell-based; settings: 37° C., 2 days, anaerobic; for MIC: Brachyspira hyodysenteriae, 48 h
Protocol: Several agents were tested for in vitro antibacterial activity against Treponema hyodysenteriae, the pathogenic bacteria causing swine dysentery, by the method of testing drug sensitivity of Treponema hyodysenteriae (Kashiwazaki et al. Abstracts of Papers presented at the 82nd Meeting of the Japanese Society of Veterinary Science, page 101, 1976).
(1) Strains: These strains belong to Treponema hyodysenteriae isolated
from the bloody mucous faeces of dysenteric pigs in Japan.
(2) Antimicrobial activity assay: Agar dilution method
(3) Inoculum size: A loopful of bacterial suspension (10^6 CFU/ml)
(4) Cultural conditions: GasPak anaerobic system (BBL), 37° C., 2
Typical agents among compound (I) were tested for in vitro antibacterial activity by the same method as in Test Example 1.
The experimental conditions are the same as in Test Example 1 (Table 1).
Agents of compound (I) were tested for in vitro antibacterial activity by the same method as in Test Example 1.

[2] = 50 ppm in feed, 21-day test period
[3] = strain 78/A, read-out: Minimum Inhibitory Concentration
[4] = strain CD1 (CD-1), read-out: Minimum Inhibitory Concentration
[5] = strain DJ70P1, read-out: Minimum Inhibitory Concentration
[6] = strain MK-2, read-out: Minimum Inhibitory Concentration
[7] = 100 ppm in feed, 21-day test period

Row | Molecule | MIC (Treponema hyodysenteriae; [3]) [mg/L] | MIC (Treponema hyodysenteriae; [4]) [mg/L] | MIC (Treponema hyodysenteriae; [5]) [mg/L] | MIC (Treponema hyodysenteriae; [6]) [mg/L] | other results
1 | COC(=O)N/N=C/c1c[n+]([O-])c2ccccc2[n+]1[O-] [Carbadox, carbadox, reference compound] | – | – | – | – | Number of pigs from which the pathogen was detected, in colonic mucosa ([1]; 50 ppm in feed): 0; Number of pigs from which the pathogen was detected, in feces ([1]; 50 ppm in feed): 0; Number of pigs showing colonic lesions ([1]; 50 ppm in feed): 0; Number of days on which mucous bloody stool was observed [1, 2]: 0 days; Number of pigs showing signs of infection/number of pigs used [1, 2]: 0/4; Body weight gain ([1]; 50 ppm in feed): 473 grams/day and 552 grams/day; Feed conversion ([1]; 50 ppm in feed): 2.08 and 1.83; Feed intake ([1]; 50 ppm in feed): 20.7 kg and 21.2 kg; Body weight at the time of completion of test ([1]; 50 ppm in feed): 21.0 kg and 22.7 kg
2 | CCCC(=O)OC1C=CC(C)=CCC(O)C=CC(C)=CC(NC(=O)C(C)=O)C2(C)C(=O)OC(C1)C(C)C2=O (stereo not shown) [Lankacidin C 14-butyrate] | 0.78 (≈ 1.47 µM) | 1.56 (≈ 2.95 µM) | 1.56 (≈ 2.95 µM) | 3.13 (≈ 5.91 µM) | –
3 | CC(=O)C(=O)NC1C=C(C)C=CC(O)CC=C(C)C=CC(OC=O)CC2OC(=O)C1(C)C(=O)C2C (stereo not shown) [Lankacidin C 14-formate, lankacidin C 14-formate] | 6.25 (≈ 12.8 µM) | 12.5 (≈ 25.6 µM) | 6.25 (≈ 12.8 µM) | 6.25 (≈ 12.8 µM) | –
4 | CCC(=O)OC1C=CC(C)=CC(NC(=O)C(C)=O)C2(C)C(=O)OC(CC(OC(C)=O)C=CC(C)=CC1)C(C)C2=O (stereo not shown) [Lankacidin A 8-propionate, lankacidin A 8-propionate] | 6.25 (≈ 11.2 µM) | 6.25 (≈ 11.2 µM) | 6.25 (≈ 11.2 µM) | 6.25 (≈ 11.2 µM) | –
5 | CCCC(=O)OC1C=CC(C)=CC(NC(=O)C(C)=O)C2(C)C(=O)OC(CC(O)C=CC(C)=CC1)C(C)C2=O (stereo not shown) [Lankacidin C 8-butyrate] | 0.78 (≈ 1.47 µM) | 0.78 (≈ 1.47 µM) | 0.78 (≈ 1.47 µM) | 0.78 (≈ 1.47 µM) | –
6 | CCC(=O)OC1C=CC(C)=CC(NC(=O)C(C)=O)C2(C)C(=O)OC(CC(O)C=CC(C)=CC1)C(C)C2=O (stereo not shown) [Lankacidin C 8-propionate, lankacidin C 8-propionate] | 1.56 (≈ 3.03 µM) | 1.56 (≈ 3.03 µM) | 1.56 (≈ 3.03 µM) | 1.56 (≈ 3.03 µM) | –
7 | Spiramycin [reference compound] | – | – | – | – | Minimum Inhibitory Concentration (Treponema hyodysenteriae; strain 78/A): > 100 µg/mL; Minimum Inhibitory Concentration (Treponema hyodysenteriae; strain CD1 (CD-1)): > 100 µg/mL; Minimum Inhibitory Concentration (Treponema hyodysenteriae; strain DJ70P1): > 100 µg/mL; Minimum Inhibitory Concentration (Treponema hyodysenteriae; strain MK-2): > 100 µg/mL
8 | CC[C@H]1OC(=O)[C@H](C)[C@@H](O[C@H]2C[C@@](C)(OC)[C@@H](O)[C@H](C)O2)[C@H](C)[C@@H](O[C@@H]2O[C@H](C)C[C@H](N(C)C)[C@H]2O)[C@](C)(O)C[C@@H](C)C(=O)[C@H](C)[C@@H](O)[C@]1(C)O [Erythromycin, reference compound] | – | – | – | – | MIC (Treponema hyodysenteriae; read-out: Minimum Inhibitory Concentration, strain 78/A): > 100 mg/L; MIC (Treponema hyodysenteriae; read-out: Minimum Inhibitory Concentration, strain CD1 (CD-1)): > 100 mg/L; MIC (Treponema hyodysenteriae; read-out: Minimum Inhibitory Concentration, strain DJ70P1): > 100 mg/L; MIC (Treponema hyodysenteriae; read-out: Minimum Inhibitory Concentration, strain MK-2): > 100 mg/L
9 | CC(=O)C(=O)NC1C=C(C)C=CC(OC(=O)C(C)C)CC=C(C)C=CC(O)CC2OC(=O)C1(C)C(=O)C2C (stereo not shown) [Lankacidin C 8-isobutyrate] | 6.25 (≈ 11.8 µM) | 6.25 (≈ 11.8 µM) | 3.13 (≈ 5.91 µM) | 6.25 (≈ 11.8 µM) | –
10 | CC(=O)OC1C=CC(C)=CC(NC(=O)C(C)=O)C2(C)C(=O)OC(CC(OC(C)=O)C=CC(C)=CC1)C(C)C2=O (stereo not shown) [Lankacidin C 8,14-diacetate, lankacidin C 8,14-diacetate] | 3.13 (≈ 5.76 µM) | 3.13 (≈ 5.76 µM) | 3.13 (≈ 5.76 µM) | 1.56 (≈ 2.87 µM) | –
11 | CC(=O)C(=O)NC1C=C(C)C=CC(OC(=O)c2ccccc2)CC=C(C)C=CC(O)CC2OC(=O)C1(C)C(=O)C2C (stereo not shown) [Lankacidin C 8-benzoate, lankacidin C 8-benzoate] | 0.1 (≈ 0.177 µM) | 0.1 (≈ 0.177 µM) | 0.1 (≈ 0.177 µM) | 0.1 (≈ 0.177 µM) | –
12 | CCC[C@@H]1C[C@@H](C(=O)N[C@@H]([C@H]2O[C@H](SC)[C@H](O)[C@@H](O)[C@H]2O)[C@@H](C)O)N(C)C1 [Lincomycin, reference compound] | 50 (≈ 123 µM) | 50 (≈ 123 µM) | 50 (≈ 123 µM) | 50 (≈ 123 µM) | –
13 | CO[C@H]1C[C@H](O[C@H]2[C@H](C)[C@@H](O[C@@H]3O[C@H](C)C[C@H](N(C)C)[C@H]3O)[C@@H](C)C[C@@]3(CO3)C(=O)[C@H](C)[C@@H](O)[C@@H](C)[C@@H](C)OC(=O)[C@@H]2C)O[C@@H](C)[C@@H]1O [Oleandomycin, reference compound] | > 100 | > 100 | > 100 | > 100 | –
14 | CCC(=O)OC1C=CC(C)=CC(NC(=O)C(C)=O)C2(C)C(=O)OC(CC(OC(=O)CC)C=CC(C)=CC1)C(C)C2=O (stereo not shown) [Lankacidin C 8,14-dipropionate, lankacidin C 8,14-dipropionate] | 0.78 (≈ 1.36 µM) | 1.56 (≈ 2.73 µM) | 0.78 (≈ 1.36 µM) | 0.78 (≈ 1.36 µM) | –
15 | CCCCC(=O)OC1C=CC(C)=CC(NC(=O)C(C)=O)C2(C)C(=O)OC(CC(O)C=CC(C)=CC1)C(C)C2=O (stereo not shown) [Lankacidin C 8-valerate] | 1.56 (≈ 2.87 µM) | 3.13 (≈ 5.76 µM) | 1.56 (≈ 2.87 µM) | 3.13 (≈ 5.76 µM) | –
16 | CC(=O)C(=O)NC1C=C(C)C=CC(O)CC=C(C)C=CC(OC(=O)C(C)C)CC2OC(=O)C1(C)C(=O)C2C (stereo not shown) [Lankacidin C 14-isobutyrate] | 12.5 (≈ 23.6 µM) | 25 (≈ 47.2 µM) | 12.5 (≈ 23.6 µM) | 25 (≈ 47.2 µM) | –
17 | CO[C@@H]1[C@@H](O[C@@H]2O[C@H](C)[C@@H](O[C@H]3C[C@@](C)(O)[C@@H](OC(=O)CC(C)C)[C@H](C)O3)[C@H](N(C)C)[C@H]2O)[C@@H](CC=O)C[C@@H](C)[C@@H](O)/C=C/C=C/C[C@@H](C)OC(=O)C[C@H]1O [Leucomycin, reference compound] | > 100 | > 100 | > 100 | > 100 | –
18 | CC(=O)C(=O)NC1C=C(C)C=CC(O)CC=C(C)C=CC(OC(=O)c2ccccc2)CC2OC(=O)C1(C)C(=O)C2C (stereo not shown) [Lankacidin C 14-benzoate, lankacidin C 14-benzoate] | 6.25 (≈ 11.1 µM) | 6.25 (≈ 11.1 µM) | 6.25 (≈ 11.1 µM) | 6.25 (≈ 11.1 µM) | –
19 | Maridomycin [reference compound] | – | – | – | – | Minimum Inhibitory Concentration (Treponema hyodysenteriae; strain 78/A): > 100 µg/mL; Minimum Inhibitory Concentration (Treponema hyodysenteriae; strain CD1 (CD-1)): > 100 µg/mL; Minimum Inhibitory Concentration (Treponema hyodysenteriae; strain DJ70P1): > 100 µg/mL; Minimum Inhibitory Concentration (Treponema hyodysenteriae; strain MK-2): > 100 µg/mL; Number of pigs from which the pathogen was detected, in colonic mucosa ([1]; 100 ppm in feed): 4; Number of pigs from which the pathogen was detected, in feces ([1]; 100 ppm in feed): 4; Number of pigs showing colonic lesions ([1]; 100 ppm in feed): 4; Number of days on which diarrhea was observed [1, 7]: 11.0 days; Number of days on which mucous bloody stool was observed [1, 7]: 5.5 days; Number of pigs showing signs of infection/number of pigs used [1, 7]: 3/4; Body weight gain ([1]; 100 ppm in feed): 430 grams/day; Feed conversion ([1]; 100 ppm in feed): 2.09; Feed intake ([1]; 100 ppm in feed): 18.8 kg; Body weight at the time of completion of test ([1]; 100 ppm in feed): 21.9 kg; effect against swine dysentery (in words) ([1]; pig, in vivo): ineffective
20 | CCCCC(=O)OC1C=CC(C)=CCC(O)C=CC(C)=CC(NC(=O)C(C)=O)C2(C)C(=O)OC(C1)C(C)C2=O (stereo not shown) [Lankacidin C 14-valerate] | 3.13 (≈ 5.76 µM) | 6.25 (≈ 11.5 µM) | 3.13 (≈ 5.76 µM) | 6.25 (≈ 11.5 µM) | –
21 | CCCC(=O)OC1C=CC(C)=CC(NC(=O)C(C)=O)C2(C)C(=O)OC(CC(OC(=O)CCC)C=CC(C)=CC1)C(C)C2=O (stereo not shown) [Lankacidin C 8,14-dibutyrate] | 1.56 (≈ 2.6 µM) | 3.13 (≈ 5.22 µM) | 3.13 (≈ 5.22 µM) | 3.13 (≈ 5.22 µM) | –

From patent US4425356A, “Lankacidin derivatives used in swine husbandry” (Takeda Chemical Industries, Ltd., priority 1980, dated 1984)
